Experiments:
[1] = solid state stability (XRPD, HPLC, chiral purity); type: physicochemical
Method: The purity test, the dynamic solubility and the stability test are tested by the Agilent 1260/1100 high performance liquid chromatograph, and the analysis conditions and chiral purity test analysis conditions of the high performance liquid chromatography test are respectively as follows.
After placing the amorphous free base and fumarate crystal form F of the compound of formula (I) at 25°C/60% RH and 40°C/75% RH for 1 week, the physical and chemical stability of the sample is detected by XRPD and HPLC (at the same time the chiral purity of the sample is tested). […] Table 4-2 Solid Stability Evaluation Summary

in vivo [2] = settings: rat, po, 10 mg/kg
Method: Solvent A: 0.5% CMC-Na +0.2% Tween80
Preparation method: 5 g of sodium carboxymethyl cellulose (CMC-Na) was accurately weighed, 2 mL of Tween 80 was added, 998 mL of purified water was added, stirred and evenly mixed on a magnetic stirrer, and stored at room temperature.
After administration, blood was taken at different time points through orbit, and the blood samples were placed in a tube containing heparin sodium (as an anticoagulant), centrifuged by a cryocentrifuge and then stored in an environment of -80°C. An appropriate amount of plasma sample (50 µL) was taken into which (200 µL) cold acetonitrile containing the internal standard was added. The plasma protein was precipitated by centrifugation for 10 minutes. Finally, 100 µL of the supernatant was added and diluted with 100 µL of pure water and then injected into an LC-MS/MS system for analysis.
LC-MS/MS analysis method: All samples were analyzed by an LC-MS/MS system of an API 3000 mass spectrometer equipped with an Agilent 1100 series of liquid phase systems (Agilent, Japan). Column: Agilent XORBAX, XDB-C8 (50×2.1mm;3.5µm). Column temperature: room temperature, flow rate: 0.4 mL/min, total running time:7min.
For the quantitative analysis of MS/MS, the API3000 mass spectrometer is operated in the positive ESI mode with multiple reaction monitoring (MRM). All compounds and internal standards were monitored with a dwell time of 200 milliseconds. Other MS/MS parameter settings are as follows: Nebulizer gas (NEB): 12 psi, Gas curtain gas (CUR): 7 psi, Collision gas (CAD): 4 psi, Ion spray voltage: 5000V, Ion source temperature:500 °C. For the transitions of the selected ions, each analyte was tested under the optimal sensitivity clustering potential (DP) and collision energy (CE). Finally, the data were collected and processed using the SCIEX Analyst 1.5.2 data processing software system.
Preparation method: 0.1 g of sodium carboxymethyl cellulose (CMC-Na) was accurately weighed, 20 ml of purified water was added, and ultrasonic stirring was performed to dissolve it to obtain 0.5% CMC-Na.

in vivo [3] = settings: mouse, in vivo, po, 10 mg/kg
Method: The collected plasma samples were subjected to a protein precipitation method by using an organic reagent according to the following method to extract test article in the plasma, and the extracted sample was subjected to quantitative concentration analysis through the LC-MS/MS.
Meanwhile, an accompanying standard curve and quality control samples were prepared for quantitative analysis.
The fumarate salt form F of the compound of formula (I) Group: 50 µL of plasma at each time point was taken, 400 µL of acetonitrile was added, vortex mixing and centrifugation was performed at 10000 rpm for 10 min, and a 200 µL supernatant for LC-MS/MS analysis was taken. Meanwhile, an accompanying standard curve and quality control samples were prepared for quantitative analysis.
According to the plasma drug concentration data obtained through analysis, the main pharmacokinetic parameters were calculated according to the non-atrioventricular model by using Kinetic software (Version 5.0).

[4] = pharmacokinetic study in mice; settings: same dose, intragastric administration
[5] = body weight of tumor-bearing mice during treatment; settings: for Mean Body Weight at Day 0: before treatment; for Body Weight Change Rate (%) / Mean Body Weight at Dosing Endpoint: 17 days

Structure (SMILES): Cc1cnc(-c2cc(N3CCc4nc(N5CCC(O)CC5)ncc4[C@H]3C)ncc2Cl)c(C)c1 [Fumarate crystal form F]
- Chiral purity (%) ([1]; 25°C/60%RH_1w): 98.6%
- Purity (Area%) ([1]; 25°C/60%RH_1w): 99.7 Area%
- Purity/Initial purity (%) ([1]; 25°C/60%RH_1w): 100.1%
- Chiral purity (%) ([1]; 40°C/75%RH_1w): 98.6%
- Purity (Area%) ([1]; 40°C/75%RH_1w): 99.6 Area%
- Purity/Initial purity (%) ([1]; 40°C/75%RH_1w): 100.0%
- Chiral purity (%) ([1]; Start): 98.6%
- Purity (Area%) ([1]; Start): 99.6 Area%
- AUC(0-t) at 24 h (in vivo [2]): 14300 ng·h/mL
- Cmax (in vivo [2]): 2850 ng/mL
- bioavailability (in vivo [2]): 97.5%
- AUC(0-inf) (in vivo [3]): 16700 ng·h/mL
- AUC(0-t) (in vivo [3]): 7500 ng·h/mL
- Cmax (in vivo [3]): 2410 ng/mL
- MRT (in vivo [3]): 15.6 h
- Tmax (in vivo [3]): 0.25 h
- half-life (in vivo [3]): 12.4 h
- Cmax higher than that of the positive drug GDC-0449 [4]: about 1 fold
- Mean Body Weight at Day 0 ([5]; 1 mg/kg group): 23.9 ± 3.1 g
- Body Weight Change Rate (%) ([5]; 1 mg/kg i.g. BID): 17.2%
- Mean Body Weight at Dosing Endpoint ([5]; 1 mg/kg i.g. BID): 28.0 ± 2.2 g
- Mean Body Weight at Day 0 ([5]; 3 mg/kg group): 24.6 ± 1.8 g
- Body Weight Change Rate (%) ([5]; 3 mg/kg i.g. BID): 8.5%
- Mean Body Weight at Dosing Endpoint ([5]; 3 mg/kg i.g. BID): 26.7 ± 2.2 g
- Mean Body Weight at Day 0 ([5]; 10 mg/kg group): 22.4 ± 2.1 g
- Body Weight Change Rate (%) ([5]; 10 mg/kg i.g. BID): 13.8%
- Mean Body Weight at Dosing Endpoint ([5]; 10 mg/kg i.g. BID): 25.5 ± 1.7 g
- impact on the body weight of tumor-bearing mice during the treatment period ([5]; administered doses, i.g. BID × 17 days): no significant impact

From EP4696689A1, “SALT FORM AND CRYSTAL FORM OF CHIRAL HETEROCYCLIC COMPOUND HAVING HEDGEHOG PATHWAY ANTAGONIST ACTIVITY” (Suzhou Kintor Pharmaceuticals, Inc., priority 2023, dated 2024)
